From US11952384B2, “Anti-tumor compound and preparation method and use thereof” (DUALITY BIOLOGICS (SUZHOU) CO., LTD., priority 2020, dated 2024)
Where two headings read alike, the source gives them in different places. Values belong to the compound of their own block, whether it stands above or below them.

Columns and labels:
JIMT-1 cells = experiment: Inhibition of in vitro proliferation of tumor cells by compounds (CTG, 6 days); assay type: cell-based
Protocol: (§1) To test the inhibitory activity of the pharmaceutical compounds on the in vitro proliferation of NCI-N87, JIMT-1 and MBA-MB-231 tumor cells. The cells were treated with the compounds at different concentrations in vitro, and after 6 days of culture, the proliferation of cells was detected using the CTG (CellTiter-Glo® Luminescent Cell Viability Assay, Promega, Cat. No. G7558) reagent, and the in vitro activity of the compounds was evaluated according to the IC50 value.
(§2) In the following, the test for the inhibition of the in vitro proliferation of NCI-N87 cells was taken as an example to illustrate the method of the present application for testing the inhibitory activity of the compounds of the present application on the in vitro proliferation of tumor cells. The method was also applicable to, but not limited to, the test for the inhibitory activity on the in vitro proliferation of other tumor cells. • 1. Culturing of cells: NCI-N87 cells were cultured in RPMI-1640 medium containing 10% FBS. • 2. Preparation of cells: NCI-N87 cells in logarithmic phase were taken, washed with PBS once, and digested with 2-3 mL of trypsin for 2-3 min. After the cells were digested completely, 10-15 mL of cell culture was added to elute the digested cells. The eluate was centrifuged at 1000 rpm for 5 min, and the supernatant was discarded. The resulting cells were resuspended in 10-20 mL of cell culture to obtain a single cell suspension. • 3. Cell plating: the NCI-N87 single cell suspension was mixed well and adjusted to a viable cell density of 6×10^4 cells/mL with cell culture. The cell suspension with the adjusted density was mixed well and added to a 96-well cell culture plate at 50 μL/well. The culture plate was incubated in an incubator for 18 h (37° C., 5% CO2). • 4. Preparation of compounds: the compounds were dissolved in DMSO to obtain stock solutions at an initial concentration of 10 mM. There were 8 concentrations in total for the small molecule compounds: 300 nM, 100 nM, 30 nM, 10 nM, 3 nM, 1 nM, 0.3 nM, and 0.1 nM. • 5. Sample adding: the prepared samples to be detected at different concentrations were added to the culture plate, and two duplicate wells were set for each sample. The culture plate was incubated in an incubator for 6 days (37° C., 5% CO2). • 6. Color developing: the 96-well cell culture plate was taken out, added with the CTG reagent at 50 μL/well, and incubated at room temperature for 10 min. • 7. Plate reading: the 96-well cell culture plate was taken out, placed in a microplate reader, and measured for the chemiluminescence using the microplate reader. Data Analysis
(§3) Data were processed and analyzed using Microsoft Excel and Graphpad Prism 5.
(§4) To test the inhibitory activity of the pharmaceutical compounds on the in vitro proliferation of NCI-N87, JIMT-1 and MBA-MB-231 tumor cells. The cells were treated with compounds at different concentrations in vitro, and after 6 days of culture, the proliferation of cells was detected using CTG (CellTiter-Glo® Luminescent Cell Viability Assay, Promega, Cat. No. G7558) reagents, and the in vitro activity of the compounds was evaluated according to the IC50 value. • 1. Culturing of cells: NCI-N87/JIMT-1/MBA-MB-231 cells were cultured in RPMI-1640 medium containing 10% FBS. • 2. Preparation of cells: NCI-N87/JIMT-1/MBA-MB-231 cells in logarithmic phase were taken, washed with PBS once, and digested with 2-3 mL of trypsin for 2-3 min. After the cells were digested completely, 10-15 mL of cell culture was added to elute the digested cells. The eluate was centrifuged at 1000 rpm for 5 min, and the supernatant was discarded. The resulting cells were resuspended in 10-20 mL of cell culture to obtain a single cell suspension. • 3. Cell plating: the NCI-N87/JIMT-1/MBA-MB-231 single cell suspension was mixed well and adjusted to a viable cell density of 6×10^4 cells/mL with cell culture. […]

BCRP [1] = target: T1, BCRP (Homo sapiens, UniProt Q9UNQ0); experiment: in vitro; settings: for efflux ratio at 2 h: Caco-2; for Papp A→B at 2 h: Caco-2, Papp (A-B) (10^−6, cm/s); for Papp B→A at 2 h: Caco-2, Papp (B-A) (10^−6, cm/s)
T1 sequence (Q9UNQ0 1-655): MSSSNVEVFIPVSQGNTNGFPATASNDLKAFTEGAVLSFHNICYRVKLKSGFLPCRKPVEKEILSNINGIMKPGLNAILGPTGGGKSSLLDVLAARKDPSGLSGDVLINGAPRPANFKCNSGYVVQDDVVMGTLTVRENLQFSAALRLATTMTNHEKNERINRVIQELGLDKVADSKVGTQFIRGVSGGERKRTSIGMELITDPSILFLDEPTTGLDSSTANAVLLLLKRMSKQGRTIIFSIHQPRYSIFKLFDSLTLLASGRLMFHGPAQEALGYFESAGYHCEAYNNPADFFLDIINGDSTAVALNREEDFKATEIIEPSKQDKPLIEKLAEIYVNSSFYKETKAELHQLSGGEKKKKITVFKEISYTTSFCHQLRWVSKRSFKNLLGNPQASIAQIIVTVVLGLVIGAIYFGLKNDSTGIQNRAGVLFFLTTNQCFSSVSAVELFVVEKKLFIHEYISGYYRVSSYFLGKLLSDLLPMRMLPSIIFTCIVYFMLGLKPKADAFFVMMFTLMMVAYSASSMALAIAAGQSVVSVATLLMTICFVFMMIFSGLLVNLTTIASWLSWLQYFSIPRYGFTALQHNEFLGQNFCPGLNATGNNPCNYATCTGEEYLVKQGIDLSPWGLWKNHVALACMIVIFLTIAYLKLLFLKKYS
Protocol: (§5) To investigate whether the compounds of the present invention is a substrate for efflux transporters P-gp and BCRP in a Caco-2 cell model, thereby providing preclinical basis for analyzing the drug-drug interaction in pharmacokinetics.
(§6) • 1) Cell culture medium was added to each well of the Transwell. The HTS Transwell plate was incubated under conditions of 37° C. and 5% CO2 for 1 h prior to cell inoculation. • 2) Caco-2 cells were diluted with culture medium and the cell suspension was dispensed into filter wells of the 96-well HTS Transwell plate. […] The cell culture medium was changed periodically. • 3) Monolayer cell resistance was measured using the Millicell Epithelial Volt-Ohm detection system. The resistance of each well was recorded. After all wells were measured, the Transwell plate was put back into the incubator. TEER of each well was calculated according to the formula. The TEER value of each well should be greater than 230 ohm·cm^2. […] Preparation for Transporter Test • 1) The Caco-2 plate was taken out from the incubator. The monolayer cells were washed with pre-heated HBSS twice. The plate was then incubated at 37° C. for 30 min. • 2) Stock solutions of the compounds were prepared in DMSO and diluted with HBSS to obtain working solutions. Digoxin was used as a reference substrate for P-gp and rosuvastatin was used as a reference substrate for BCRP. Propranolol was used as a high permeability marker. • 3) The working solution (without inhibitor) was added to the Transwell insert (apical compartment) to determine the rate of drug transport in the apical to basolateral direction. The transfer buffer was added to the wells in the receiver plate (basolateral compartment). The working solution (without inhibitor) was added to the receiver plate wells (basolateral compartment) to determine the rate of drug transport in the basolateral to apical direction. The Transwell insert (apical compartment) was filled with the transport buffer. PSC833 was added to the apical and basolateral compartments to determine the rate of drug transport in the presence of P-gp inhibitors. • 4) The sample was transferred from the working solution to the quenching solution, and a sample with a time of 0 was prepared. The Transwell plate was incubated under conditions of 37° C. and 5% CO2 for 2 h. • 5) At the end of the transport cycle, the samples were transferred from the apical and basolateral wells into a new 96-well plate. Cold acetonitrile or methanol containing the appropriate internal standard (IS) was added to each well of the plate. The plate was vortexed for 10 min. The samples were centrifuged. The supernatant of an aliquot was mixed with an appropriate amount of ultrapure water (depending on the LC-MS/MS signal response and peak shape) prior to the LC-MS/MS analysis. • 6) The stock solution of lucifer yellow in DMSO was prepared and diluted with HBSS to determine the amount of lucifer yellow leakage after a 2-hour transport period. The lucifer yellow solution was added to the apical compartment. HBSS was added to the basolateral compartment. The plate was incubated at 37° C. for 30 min, and a certain amount of the solution was directly taken from the apical and basolateral wells and transferred to a new 96-well plate. The lucifer yellow fluorescence was measured in a fluorescence plate reader with 485 nm excitation and 530 nm emission (to monitor monolayer integrity).
(§7) Data were calculated using Microsoft Excel. The percentage of the compound remaining at each time point was estimated by determining the peak area ratio from the extracted ion chromatogram.
(§8) For drug transport analysis in the Caco-2 cell model, the apparent permeability coefficient (Papp) can be calculated according to the following formula, in cm/s:
(§9) [formula] • wherein the concentration C is in nM, the volume V is in μL, the time T is in s, and the area S is in cm^2.
(§10) The recovery rate is calculated according to the following formula:

BCRP [2] = target: T1, BCRP; experiment: Study on transporter substrates in Caco-2 cell model; settings: human, Caco-2
Protocol: as §5, §6, §7, §8, §9, §10

BCRP [3] = target: T1, BCRP
Protocol: as §5, §6, §7, §8, §9, §10

NCI-N87 cells = experiment: Inhibition of in vitro proliferation of tumor cells by compounds (CTG, 6 days); assay type: cell-based; settings: Homo sapiens, NCI-N87, 144 h, read-out: NCI-N87 IC50 (nM)
Protocol: as §1, §2, §3, §4

[4] = Homo sapiens, JIMT-1, 144 h, read-out: JIMT-1 IC50 (nM)

SMILES: CC[C@@]1(O)C(=O)OCc2c1cc1n(c2=O)Cc2c-1nc1cc(F)c(C)c3c1c2[C@@H](NC(=O)C1(O)CCC1)CC3 [compound 1, N-((1S,9S)-9-ethyl-5-fluoro-9-hydroxy-4-methyl-10,13-dioxo-2,3,9,10,13,15-hexahydro-1H,12H-benzo[de]pyrano[3′,4′:6,7]indolizino[1,2-b]quinolin-1-yl)-1-hydroxycyclobutane-1-carboxamide, reference compound]
IC50 (JIMT-1 cells; Homo sapiens, JIMT-1, 144 h, Table 2 (untitled), Test Example 2.2, small molecule fragments, 6 days of culture, CTG, read-out: JIMT-1 IC50): 23.1 nM

efflux ratio at 2 h (BCRP [1]): 81.2 | Papp A→B at 2 h (BCRP [1]): 0.12 ×10⁻⁶ cm/s | Papp B→A at 2 h (BCRP [1]): 9.52 ×10⁻⁶ cm/s | recovery at 2 h (BCRP [2]; Caco-2, Recovery rate (%) AP-BL, KO143 −): 98.5% | recovery at 2 h (BCRP [2]; Caco-2, Recovery rate (%) BL-AP, KO143 −): 96.8% | recovery at 2 h (BCRP [2]; Caco-2, with KO143 (concentration not stated), Recovery rate (%) AP-BL, KO143 +): 95.8% | recovery at 2 h (BCRP [2]; Caco-2, with KO143 (concentration not stated), Recovery rate (%) BL-AP, KO143 +): 97.1% | BCRP substrate (BCRP [3]; Caco-2): Yes | Papp (A-B) (10^−6, cm/s) (BCRP [3]; Caco-2): 0.45 10^−6, cm/s | Papp (B-A) (10^−6, cm/s) (BCRP [3]; Caco-2): 3.15 10^−6, cm/s | Efflux ratio (BCRP [3]; human, Caco-2, 2 h): 6.96
SMILES: CC(C)c1nc(N(C)S(C)(=O)=O)nc(-c2ccc(F)cc2)c1/C=C/[C@@H](O)C[C@@H](O)CC(=O)O [Rosuvastatin, rosuvastatin, reference compound]

SMILES: CC[C@@]1(O)C(=O)OCc2c1cc1n(c2=O)Cc2c-1nc1cc(F)c(C)c3c1c2[C@@H](NC(=O)CCO)CC3 [compound 3, N-((1S,9S)-9-ethyl-5-fluoro-9-hydroxy-4-methyl-10,13-dioxo-2,3,9,10,13,15-hexahydro-1H,12H-benzo[de]pyrano[3′,4′:6,7]indolizino[1,2-b]quinolin-1-yl)-3-hydroxypropanamide, reference compound]
IC50 (JIMT-1 cells; Homo sapiens, JIMT-1, 144 h, Table 3, Test Example 2.3, small molecule fragments, 6 days of culture, CTG, read-out: JIMT-1 IC50): 81.2 nM

SMILES: CCCC(O)CC(=O)N[C@H]1CCc2c(C)c(F)cc3nc4c(c1c23)Cn1c-4cc2c(c1=O)COC(=O)[C@]2(O)CC (stereo partly drawn) [P-III-27, N-((1S,9S)-9-ethyl-5-fluoro-9-hydroxy-4-methyl-10,13-dioxo-2,3,9,10,13,15-hexahydro-1H,12H-benzo[de]pyrano[3′,4′:6,7]indolizino[1,2-b]quinolin-1-yl)-3-hydroxyhexanamide]
IC50 (NCI-N87 cells): 3 nM

efflux ratio at 2 h (BCRP [1]): 1.09 | Papp A→B at 2 h (BCRP [1]): 17.3 ×10⁻⁶ cm/s | Papp B→A at 2 h (BCRP [1]): 18.9 ×10⁻⁶ cm/s | recovery at 2 h (BCRP [1]; Caco-2, Recovery rate (%) AP-BL): 62.2% | recovery at 2 h (BCRP [1]; Caco-2, Recovery rate (%) BL-AP): 82.4% | BCRP substrate (BCRP [3]; Caco-2): No
SMILES: CC(C)NCC(O)COc1cccc2ccccc12 (centres unmarked) [Propranolol]

SMILES: CC[C@@]1(O)C(=O)OCc2c1cc1n(c2=O)Cc2c-1nc1cc(F)c(C)c3c1c2[C@@H](NC(=O)CCN)CC3 [compound 2, N-((1S,9S)-9-ethyl-5-fluoro-9-hydroxy-4-methyl-10,13-dioxo-2,3,9,10,13,15-hexahydro-1H,12H-benzo[de]pyrano[3′,4′:6,7]indolino[1,2-b]quinolin-1-yl)-3-aminopropionamide, reference compound]
IC50 (JIMT-1 cells; Table 3, Test Example 2.3, small molecule fragments, 6 days of culture, CTG, read-out: JIMT-1 IC50): 36.2 nM

SMILES: CC[C@@]1(O)C(=O)OCc2c1cc1n(c2=O)Cc2c-1nc1cc(F)c(C)c3c1c2[C@@H](NC(=O)CC(=O)CO)CC3 [P-III-22, N-((1S,9S)-9-ethyl-5-fluoro-9-hydroxy-4-methyl-10,13-dioxo-2,3,9,10,13,15-hexahydro-1H,12H-benzo[de]pyrano[3′,4′:6,7]indolizino[1,2-b]quinolin-1-yl)-4-hydroxy-3-oxobutanamide]
IC50 (JIMT-1 cells; [4]): 12.5 nM

SMILES: CC[C@@]1(O)C(=O)OCc2c1cc1n(c2=O)Cc2c-1nc1cc(F)c(C)c3c1c2[C@@H](NC(=O)C(C)C(C)O)CC3 (stereo partly drawn) [compound 4, N-((1S,9S)-9-ethyl-5-fluoro-9-hydroxy-4-methyl-10,13-dioxo-2,3,9,10,13,15-hexahydro-1H,12H-benzo[de]pyrano[3′,4′:6,7]indolizino[1,2-b]quinolin-1-yl)-3-hydroxy-2-methylbutanamide, reference compound]
IC50 (JIMT-1 cells; [4]): 32.3 nM

SMILES: CC[C@@]1(O)C(=O)OCc2c1cc1n(c2=O)Cc2c-1nc1cc(F)c(C)c3c1c2[C@@H](NC(=O)C1CCCC(O)C1)CC3 (stereo partly drawn) [P-II-22, N-((1S,9S)-9-ethyl-5-fluoro-9-hydroxy-4-methyl-10,13-dioxo-2,3,9,10,13,15-hexahydro-1H,12H-benzo[de]pyrano[3′,4′:6,7]indolizino[1,2-b]quinolin-1-yl)-3-hydroxycyclohexane-1-carboxamide]
IC50 (JIMT-1 cells; [4]): 3.2 nM

SMILES: CC[C@@]1(O)C(=O)OCc2c1cc1n(c2=O)Cc2c-1nc1cc(F)c(C)c3c1c2[C@@H](NC(=O)CCS)CC3 [P-III-2, N-((1S,9S)-9-ethyl-5-fluoro-9-hydroxy-4-methyl-10,13-dioxo-2,3,9,10,13,15-hexahydro-1H,12H-benzo[de]pyrano[3′,4′:6,7]indolizino[1,2-b]quinolin-1-yl)-3-mercaptopropanamide]
IC50 (NCI-N87 cells): 108 nM | IC50 (JIMT-1 cells; [4]): 108 nM
